Data taken from US12427134B2, “Methods of reducing the risk of cardiovascular events in a subject with atrial fibrillation and/or atrial flutter” (priority 2019, dated 2025).
Read-outs that look alike come from different tables or passages of the source.

System: hypertriglyceridemic patients with cardiovascular disease or at high risk for cardiovascular disease
Conditions: human, in vivo
Protocol: The following clinical events that were positively adjudicated by the Clinical Endpoint Committee were analyzed as tertiary endpoints for the ITT intent-to-treat (ITT) population: • Composition of total mortality, or congestive heart failure (CHF); • Composite of CV death, or new CHF; • Sudden cardiac death; • Peripheral artery disease (PAD); and • Atrial fibrillation, or atrial flutter.
Definition of Cardiac Arrhythmia Requiring Hospitalization: An arrhythmia that either results in hospitalization (≥24 hours) during or within 24 hours of the termination of the last episode for treatment or requires continued hospitalization for treatment, including any one of the following: • Atrial arrhythmia—atrial fibrillation, atrial flutter, supraventricular tachycardia that requires cardio-version, drug therapy, or is sustained for greater than 1 minute; • Ventricular arrhythmia—Ventricular tachycardia or ventricular fibrillation requiring cardio-version and/or intravenous antiarrhythmics; and/or • Bradyarrhythmia—High-level AV block (defined as third-degree AV block or second-degree AV block), junctional or ventricular escape rhythm, or severe sinus bradycardia (typically with heart rate <30 bpm). The bradycardia must require temporary or permanent pacing.
The objective of the following study was to determine how icosapent ethyl affected the incidence of atrial fibrillation and/or flutter in patients from the REDUCE-IT trial, as described in Example 1.
Although not pre-specified as TEAEs of special interest, atrial fibrillation and atrial flutter were also explored post hoc as potential safety signals as discussed above in Example 7. A summary of TEAEs and SAEs of atrial fibrillation/flutter is presented in Table 83, along with positively adjudicated atrial fibrillation/flutter requiring hospitalization of ≥24 hours as a comprehensive compilation of all documented post-randomization occurrences of these atrial arrhythmias. Occurrences of atrial fibrillation or flutter not meeting endpoint criteria (i.e., not positively adjudicated as endpoints) were counted as TEAEs or SAEs, per seriousness criteria.

For `CC/C=C\C/C=C\C/C=C\C/C=C\C/C=C\CCCC(=O)OCC` [AMR101, eicosapentaenoic acid ethyl ester], the “Adjudicated as Bradycardia/Heart Block (without Hosp. ≥24 hrs), patients (%)” value was “(0.0) %”, the “Adjudicated as VTA/F (without Hosp. ≥24 hrs), patients (%)” value was “(0.0) %” and the “Atrial fibrillation TEAE, Event Rate” value was 5.3%. The “Atrial fibrillation TEAE, Number of Subjects” value was 215, the “Atrial fibrillation and/or flutter adverse events, SAEs” value was 0.5% and the “Atrial fibrillation and/or flutter adverse events, TEAEs” value was 5.8%. For the same compound, the “Atrial fibrillation or atrial flutter requiring hospitalization of ≥24 hours, patients with event” value was 3.1%, the “Atrial fibrillation/flutter AEs, %” value was “(7.7) %” and the “Atrial fibrillation/flutter AEs, (%)” value was 5.8%. For the same compound, the “Atrial fibrillation/flutter SAEs (not positively adjudicated as endpoints), patients” value was 0.6%, the “Atrial fibrillation/flutter TEAEs (not positively adjudicated as endpoints), patients” value was 7.7% and the “Positively Adjudicated Atrial Fibrillation/Flutter (requiring hospitalization)” value was 127 (3.1%) n (%). The “Positively adjudicated Afib/Aflutter requiring ≥24 hours hospitalization, (%)” value was 3.1%, the “Positively adjudicated atrial fibrillation/flutter requiring ≥24 hours hospitalization, %” value was “(3.1) %” and the “Serious Afib/Aflutter AEs, (%)” value was 0.5%. The “Serious atrial fibrillation/flutter AEs, %” value was “(0.6) %”, the “Subjects with at least one Atrial Fibrillation/Atrial Flutter event” value was 321 and the “Treatment-emergent atrial fibrillation (Serious), Event Rate” value was 0.5%. For the same compound, the “Treatment-emergent atrial fibrillation (Serious), Number of Subjects” value was 21, the “Treatment-emergent atrial fibrillation, Event Rate” value was 5.3% and the “Treatment-emergent atrial fibrillation, Number of Subjects” value was 215. For the same compound, the “Treatment-emergent atrial flutter (Serious), Event Rate” value was 0.0%, the “Treatment-emergent atrial flutter (Serious), Number of Subjects” value was 1 and the “Treatment-emergent atrial flutter, Event Rate” value was 0.8%. The “Treatment-emergent atrial flutter, Number of Subjects” value was 32, the “First onset of atrial fibrillation and/or flutter, Icosapent Ethyl-Placebo Risk Diff., % (95% CI)” value (from here on “First onset … (95% CI)”) (0.5 years) was −0.00% and the “First onset … (95% CI)” value (1 year) was 0.20%. The “First onset … (95% CI)” value (1.5 years) was 0.51%, the “First onset … (95% CI)” value (2 years) was 0.59% and the “First onset … (95% CI)” value (2.5 years) was 0.78%. The “First onset … (95% CI)” value (3 years) was 0.83%, the “First onset … (95% CI)” value (3.5 years) was 1.17% and the “First onset … (95% CI)” value (4 years) was 1.23%. For the same compound, the “First onset … (95% CI)” value (4.5 years) was 1.00%, the “First onset … (95% CI)” value (5 years) was 1.08% and the “First onset … (95% CI)” value (5.5 years) was 1.00%. The “Positively adjudicated atrial fibrillation and/or flutter, incidence” value (6 months) was 0.3% and the “First onset … (95% CI)” value (6 years) was 2.07%.
